Measurements as given in patent US8269043B2, “Bicyclic aryl sphingosine 1-phosphate analogs” (Biogen Idec MA Inc., priority 2008, dated 2012).

Legend:
human S1P3 receptor [1] = target: T1, human S1P3 receptor (Homo sapiens, UniProt Q99500); assay: Calcium mobilization assay, agonist activity at human S1P3; type: cell-based; conditions: recombinant CHEM cells expressing human S1P3, FLIPR Calcium 4 dye (FIG. 9, FIG. 11)
T1 construct: host or cells: recombinant CHEM cells
Protocol: (§1) Compounds that were not specific for the S1P, receptor, can have activity for other S1P receptor subtypes, e.g., S1P2, S1P3, S1P4, or S1P5, and can cause undesirable side effects. Accordingly, compounds were tested to identify those that were specific for S1P1 activity and had little or no activity, or are antagonists of, S1P3 activity. Accordingly, the test compounds were tested in a calcium mobilization assay to determine agonist activity at either the human S1P1 or human S1P3 receptor, and antagonist activity only at the human S1P3 receptor. The procedure was essentially as described (with modifications described below) in Davis et al. (2005) Journal of Biological Chemistry, vol. 280, pp. 9833-9841, which is incorporated by reference in its entirety. Calcium mobilization assays were performed in recombinant CHEM cells expressing human S1P1 or S1P3 purchased from Millipore (Billerica, Mass.). To detect free intracellular calcium, S1P1 or S1P3 cells were loaded with FLIPR Calcium 4 dye from Molecular Devices (Sunnyvale, Calif.). Cells were imagined for calcium mobilization using a FLIPR^TETRA equipped with a 96-well dispense head.

human S1P3 receptor [2] = target: T1, human S1P3 receptor; assay: Calcium mobilization assay, antagonist activity at human S1P3; type: cell-based; conditions: recombinant CHEM cells expressing human S1P3, FLIPR Calcium 4 dye (FIG. 10, FIG. 11)
Protocol: as §1

human S1P1 = target: T2, human S1P1 (Homo sapiens, UniProt P21453); assay: Calcium mobilization assay, agonist activity at human S1P1; type: cell-based; conditions: recombinant CHEM cells expressing human S1P1, FLIPR Calcium 4 dye (FIG. 8, FIG. 11)
T2 construct: host or cells: recombinant CHEM cells
Protocol: as §1

circulating lymphocytes = assay: Lymphopenia assay: circulating lymphocytes after oral gavage; type: in vivo; conditions: C57bl/6 male mice, oral gavage 0.5 and 5 mg/kg in 30% HPCD, blood 5 and 24 hours after administration; for ED50: Mus musculus, Lymphocyte, po
Protocol: Measurement of circulating lymphocytes: Compounds were dissolved in 30% HPCD. Mice (C57bl/6 male, 6-10 week-old) were administered 0.5 and 5 mg/kg of a compound via oral gavage. 30% HPCD was included as a negative control.
Blood was collected from the retro-orbital sinus 5 and 24 hours after drug administration under short isoflurane anesthesia. Whole blood samples were subjected to hematology analysis. Peripheral lymphocyte counts were determined using an automated analyzer (HEMAVET™ 3700). Three mice were used to assess the lymphocyte depletion activity of each compound screened.
Compounds of formula (I) induced full lymphopenia at times as short as 3 hours or less to as long as 48 hours or more; for example, 4 to 36 hours, or 5 to 24 hours. In some cases, a compound of formula induced full lymphopenia at 5 hours and partial lymphopenia at 24 hours. The dosage required to induce lymphopenia can be in the range of, e.g., 0.001 mg/kg to 100 mg/kg; or 0.01 mg/kg to 10 mg/kg. The dosage can be 10 mg/kg or less, such as 5 mg/kg or less, 1 mg/kg or less, or 0.1 mg/kg or less

T1 sequence (Q99500 whole entry): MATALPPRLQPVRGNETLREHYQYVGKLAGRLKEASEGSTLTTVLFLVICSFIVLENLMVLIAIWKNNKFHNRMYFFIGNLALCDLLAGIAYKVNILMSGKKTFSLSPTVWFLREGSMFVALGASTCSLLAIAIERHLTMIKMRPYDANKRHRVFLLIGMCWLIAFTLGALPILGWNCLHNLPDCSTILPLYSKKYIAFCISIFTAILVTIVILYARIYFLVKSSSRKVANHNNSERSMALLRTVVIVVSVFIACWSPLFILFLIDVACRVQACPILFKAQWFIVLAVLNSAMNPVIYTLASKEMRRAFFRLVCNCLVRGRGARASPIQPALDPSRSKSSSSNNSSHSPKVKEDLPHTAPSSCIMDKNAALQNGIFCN
T2 sequence (P21453 whole entry): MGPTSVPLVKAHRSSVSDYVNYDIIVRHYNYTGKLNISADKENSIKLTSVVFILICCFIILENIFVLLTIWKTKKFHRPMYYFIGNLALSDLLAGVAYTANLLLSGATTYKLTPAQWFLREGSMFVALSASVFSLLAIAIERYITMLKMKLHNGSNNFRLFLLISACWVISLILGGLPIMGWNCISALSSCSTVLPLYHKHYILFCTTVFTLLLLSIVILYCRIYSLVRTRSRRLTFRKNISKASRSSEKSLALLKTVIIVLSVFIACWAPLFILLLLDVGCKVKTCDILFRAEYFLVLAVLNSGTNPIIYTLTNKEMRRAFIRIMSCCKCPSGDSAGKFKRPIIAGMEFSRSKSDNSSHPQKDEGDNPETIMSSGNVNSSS

Row | Molecule | ED50 (circulating lymphocytes) | other results
1 | COc1ccc2cc([C@H](C)COC(N)=O)ccc2c1 [Example 2, carbamic acid (S)-2-(6-methoxy-naphthalen-2-yl)-propyl ester] |  | S1P3 agonist activity (human S1P3 receptor [1]): no activity was seen
2 | CC(C)(C)[C@H]1CC[C@H](Oc2ccc3cc(C(N)(COP(=O)(O)O)COP(=O)(O)O)ccc3c2C(F)(F)F)CC1 [Example 61A, 2-amino-2-[6-(trans-4-tert-butylcyclohexyloxy)-5-trifluoromethyl-naphthalen-2-yl]-propane-1,3-diphosphoric acid] |  | S1P3 antagonist activity (human S1P3 receptor [2]): do not antagonize the S1P3 receptor; S1P1 agonist activity (human S1P1): agonists of the S1P, receptor, with potencies similar to S1P
3 | CC(C)(C)[C@H]1CC[C@H](Oc2ccc3cc([C@@](C)(N)CO)ccc3c2-c2ccc(Cl)cc2)CC1 [Example 233, (R)-2-amino-2-(6-(trans-4-tert-butylcyclohexyloxy)-5-(4-chlorophenyl)naphthalen-2-yl)propan-1-ol] | > 5 mg/kg | 
4 | CC(C)(C)[C@H]1CC[C@H](Oc2ccc3cc([C@@](C)(N)CO)ccc3c2Cl)CC1 [Example 236, (R)-2-amino-2-(6-(trans-4-tert-butylcyclohexyloxy)-5-chloronaphthalen-2-yl)propan-1-ol] | < 0.5 mg/kg | 
5 | CC(C)(C)[C@H]1CC[C@H](Oc2ccc3cc([C@@](C)(N)CO)ccc3c2Br)CC1 [Example 237, (R)-2-amino-2-(5-bromo-6-(trans-4-tert-butylcyclohexyloxy)naphthalen-2-yl)propan-1-ol] | < 0.5 mg/kg | 
6 | CC(C)(C)[C@H]1CC[C@H](Oc2ccc3cc([C@]4(C)COC(=O)N4)ccc3c2)CC1 [Example 238, (R)-4-(6-(trans-4-tert-butylcyclohexyloxy)naphthalen-2-yl)-4-methyloxazolidin-2-one] | < 0.5 mg/kg | 
7 | CC(C)(C)[C@H]1CC[C@H](Oc2c(Cl)c(Cl)c3cc([C@@](C)(N)CO)ccc3c2Cl)CC1 [Example 240, (R)-2-amino-2-(6-(trans-4-tert-butylcyclohexyloxy)-5,7,8-trichloronaphthalen-2-yl)propan-1-ol] | > 5 mg/kg | 
8 | CC(C)(C)[C@H]1CC[C@H](Oc2ccc3cc([C@@](C)(N)CO)ccc3c2F)CC1 [Example 242, (R)-2-amino-2-(6-(trans-4-tert-butylcyclohexyloxy)-5-fluoronaphthalen-2-yl)propan-1-ol] | < 0.5 mg/kg | 
9 | NC(CO)(CO)c1ccc2cc(Oc3ccc(Oc4ccccc4)cc3)ccc2c1 [Example 245, 2-amino-2-(6-(4-phenoxyphenoxy)naphthalen-2-yl)propane-1,3-diol] | < 0.5 mg/kg | 
10 | NC(CO)(CO)c1ccc2cc(Oc3ccc(OCc4ccccc4)cc3)ccc2c1 [Example 248, 2-amino-2-(6-(4-(benzyloxy)phenoxy)naphthalen-2-yl)propane-1,3-diol] | < 0.5 mg/kg | 
11 | CCCCCOc1ccc(Oc2ccc3cc(C(N)(CO)CO)ccc3c2)cc1 [Example 251, 2-amino-2-(6-(4-(pentyloxy)phenoxy)naphthalen-2-yl)propane-1,3-diol] | < 0.5 mg/kg | 
12 | C[C@](N)(CO)c1ccc2cc(O[C@H]3CC[C@@H](C(F)(F)F)CC3)ccc2c1 [Example 259, (R)-2-Amino-2-[6-(cis-4-trifluoromethyl-cyclohexyloxy)-naphthalen-2-yl]-propan-1-ol] | 0.5 to 5 mg/kg | 
13 | C[C@](N)(CO)c1ccc2cc(O[C@H]3CC[C@H](C(F)(F)F)CC3)ccc2c1 [Example 260, (R)-2-Amino-2-[6-(trans-4-trifluoromethyl-cyclohexyloxy)-naphthalen-2-yl]-propan-1-ol] | 0.5 to 5 mg/kg | 
14 | C[C@](N)(CO)c1ccc2c(C(F)(F)F)c(O[C@H]3CC[C@H](C(F)(F)F)CC3)ccc2c1 [Example 266, (R)-2-Amino-2-[5-trifluoromethyl-6-(trans-4-trifluoromethylcyclohexyloxy)-naphthalen-2-yl]propan-1-ol] | < 0.5 mg/kg | 
15 | C[C@](N)(COP(=O)(O)O)c1ccc2c(C(F)(F)F)c(O[C@H]3CC[C@H](C(F)(F)F)CC3)ccc2c1 [Example 269, Phosphoric acid mono-{(R)-2-amino-2-[5-trifluoromethyl-6-(trans-4-trifluoromethyl-cyclohexyloxy)-naphthalen-2-yl]-propyl}ester] |  | S1P3 antagonist activity (human S1P3 receptor [2]): S1P3 antagonists; S1P3 agonist activity (human S1P3 receptor [1]): not S1P3 agonists; S1P1 agonist activity (human S1P1): S1P, agonists
16 | CC(F)(F)[C@H]1CC[C@H](Oc2ccc3cc([C@@](C)(N)CO)ccc3c2)CC1 [Example 299, (R)-2-amino-2-(6-(trans-4-(1,1-difluoroethyl)cyclohexyloxy)naphthalen-2-yl)propan-1-ol] | < 0.5 mg/kg | 
17 | CCC(F)(F)[C@H]1CC[C@H](Oc2ccc3cc([C@@](C)(N)CO)ccc3c2)CC1 [Example 305, (R)-2-amino-2-(6-(trans-4-(1,1-difluoropropyl)cyclohexyloxy)naphthalen-2-yl)propan-1-ol] | < 0.5 mg/kg | 
18 | CCCC(F)(F)[C@H]1CC[C@H](Oc2ccc3cc([C@@](C)(N)CO)ccc3c2)CC1 [Example 311, (R)-2-amino-2-(6-(trans-4-(1,1-difluorobutyl)cyclohexyloxy)naphthalen-2-yl)propan-1-ol] | < 0.5 mg/kg | 
19 | CC(F)(F)[C@H]1CC[C@@H](Oc2ccc3cc([C@@](C)(N)CO)ccc3c2)CC1 [Example 319, (R)-2-amino-2-(6-(cis-4-(1,1-difluoroethyl)cyclohexyloxy)naphthalen-2-yl)propan-1-ol] | > 5 mg/kg | 
20 | CCC(F)(F)[C@H]1CC[C@@H](Oc2ccc3cc([C@@](C)(N)CO)ccc3c2)CC1 [Example 325, (R)-2-amino-2-(6-(cis-4-(1,1-difluoropropyl)cyclohexyloxy)naphthalen-2-yl)propan-1-ol] | > 5 mg/kg | 
21 | CCCC(F)(F)[C@H]1CC[C@@H](Oc2ccc3cc([C@@](C)(N)CO)ccc3c2)CC1 [Example 331, (R)-2-amino-2-(6-(cis-4-(1,1-difluorobutyl)cyclohexyloxy)naphthalen-2-yl)propan-1-ol] | > 5 mg/kg | 
22 | CC(F)(F)[C@H]1CC[C@H](Oc2ccc3cc([C@@](C)(N)CO)ccc3c2C(F)(F)F)CC1 [Example 334, (R)-2-amino-2-(6-(trans-4-(1,1-difluoroethyl)cyclohexyloxy)-5-(trifluoromethyl)naphthalen-2-yl)propan-1-ol] | < 0.5 mg/kg | 
23 | CCC(F)(F)[C@H]1CC[C@H](Oc2ccc3cc([C@@](C)(N)CO)ccc3c2C(F)(F)F)CC1 [Example 337, (R)-2-amino-2-(6-(trans-4-(1,1-difluoropropyl)cyclohexyloxy)-5-(trifluoromethyl)naphthalen-2-yl)propan-1-ol] | < 0.5 mg/kg | 
24 | CCCCCCCCCCCCC/C=C/[C@@H](O)[C@@H](N)COP(=O)(O)O [Example S1P, Sphingosine 1-phosphate] |  | S1P3 agonist activity (human S1P3 receptor [1]): full S1P3 agonist
25 | (R)-2-Amino-2-[6-(cis-4-pentyl-cyclohexyloxy)-naphthalen-2-yl]-propan-1-ol and (R)-2-Amino-2-[6-(trans-4-pentyl-cyclohexyloxy)-naphthalen-2-yl]-propan-1-ol [Example 272] |  | Lymphopenia (ED50 mg/kg) (circulating lymphocytes): <0.5 mg/kg
26 | (R)-2-amino-2-(6-(3-(benzyloxy)phenylthio)naphthalen-2-yl)propan-1-ol [Example 155] |  | Lymphopenia (ED50 mg/kg) (circulating lymphocytes): <0.5 mg/kg
27 | (R)-2-amino-2-(6-((1R,2R,4S)-bicyclo[2.2.1]heptan-2-yloxy)naphthalen-2-yl)propan-1-ol [Example 105] |  | Lymphopenia (ED50 mg/kg) (circulating lymphocytes): >5 mg/kg
